Source: US9345247B2, “Azaindole carboxylic acid amides and azaindole thiocarboxylic acid amides for use as insecticides and acaricides” (BAYER CROPSCIENCE AG, priority 2012, dated 2016)

Experiments:
[1] = tested on: greenhouse red spider mite (Tetranychus urticae); assay: Tetranychus urticae spray test, OP-resistant (TETRUR); format: in vivo; conditions: for efficacy: 100 g/ha, spray, after 6 days
Protocol: (§1) To produce a suitable active compound formulation, 1 part by weight of active compound is mixed with the stated amounts of solvent and emulsifier, and the concentrate is diluted with emulsifier-containing water to the desired concentration.
Discs of bean leaves (Phaseolus vulgaris) infested by all stages of the greenhouse red spider mite (Tetranychus urticae) are sprayed with an active compound formulation of the desired concentration.
After 6 days, the efficacy in % is determined 100% means that all the spider mites have been killed; 0% means that none of the spider mites have been killed. […]

[2] = tested on: larvae of the mustard beetle (Phaedon cochleariae); assay: Phaedon cochleariae spray test (PHAECO); format: in vivo; conditions: for efficacy: spray, after 7 days
Protocol: Phaedon cochleariae—Spray Test (PHAECO)
(§2) To produce a suitable preparation of active compound, 1 part by weight of active compound is mixed with the stated amounts of solvent and emulsifier, and the concentrate is diluted with emulsifier-containing water to the desired concentration.
Discs of Chinese cabbage leaves (Brassica pekinensis) are sprayed with an active compound formulation of the desired concentration and, after drying, populated with larvae of the mustard beetle (Phaedon cochleariae).
After 7 days, the efficacy in % is determined. 100% means that all the beetle larvae have been killed; 0% means that no beetle larvae have been killed.
After the stated period of time, the effect in % is determined 100% means that all the beetle larvae have been killed; 0% means that no beetle larvae have been killed.

[3] = tested on: caterpillars of the armyworm (Spodoptera frugiperda); assay: Spodoptera frugiperda spray test (SPODFR); format: in vivo; conditions: for efficacy: spray, after 7 days
Protocol: Spodoptera frugiperda—Spray Test (SPODFR)
as §1
Leaf discs of maize (Zea mays) are sprayed with an active compound formulation of the desired concentration and, after drying, populated with caterpillars of the armyworm (Spodoptera frugiperda).
After 7 days, the efficacy in % is determined. 100% means that all the caterpillars have been killed; 0% means that no caterpillars have been killed.
as §2
Leaf discs of maize (Zea mays) are sprayed with an active compound preparation of the desired concentration and, after drying, populated with caterpillars of the armyworm (Spodoptera frugiperda).
After the stated period of time, the effect in % is determined. 100% means that all the caterpillars have been killed; 0% means that no caterpillars have been killed.

[4] = log P by HPLC on reversed-phase column (C18), EEC directive 79/831 Annex V.A8; format: physicochemical; conditions: HPLC, acidic range pH 2.7, 43° C.
Protocol: a) The determination of the W by LC-MS in the acidic range is effected at pH 2.7, acetonitrile (contains 0.1% formic acid) and water as eluents; linear gradient from 10% acetonitrile to 95% acetonitrile, instrument: Agilent 1100 LC-System, Agilent MSD System, HTS PAL. The log P values reported in the tables and Preparation Examples above were determined in accordance with EEC directive 79/831 Annex V.A8 by HPLC (High Performance Liquid Chromatography) using a reversed-phase column (C18). Temperature 43° C. The calibration is effected with unbranched alkan-2-ones (having 3 to 16 carbon atoms), for which the log P values are known.

[5] = tested on: Boophilus microplus; assay: Boophilus microplus test (BOOPMI injection); format: in vivo; conditions: 20 μg/animal, after 7 days
Protocol: Boophilus microplus Test (BOOPMI Injection) [table] To produce a suitable active compound formulation, 10 mg of active compound are mixed with 0.5 ml of solvent and the concentrate is diluted with solvent to the desired concentration. The active compound solution is injected into the abdomen (Boophilus microplus), and the animals are transferred into dishes and stored in a climate-controlled room. After 7 days, the efficacy in % is determined. The activity is assessed by laying of fertile eggs. 100% means that none of the ticks has laid any fertile eggs.

[6] = tested on: adult Musca domestica; assay: Musca domestica test (MUSCDO); format: in vivo; conditions: 100 ppm, after 2 days
Protocol: (§3) Musca domestica Test (MUSCDO) [table] To produce a suitable active compound formulation, 10 mg of active compound are mixed with 0.5 ml of dimethyl sulfoxide, and the concentrate is diluted with water to the desired concentration. Vessels containing a sponge treated with the active compound formulation of the desired concentration are populated with adult Musca domestica. After 2 days, the kill in % is determined 100% means that all flies have been killed; 0% means that no flies have been killed.

[7] = tested on: Ctenocephalides felis; assay: Ctenocephalides felis; oral (CTECFE); format: in vivo; conditions: 100 ppm, oral in cattle blood, after 2 days
Protocol: Ctenocephalides felis; Oral (CTECFE)
To produce a suitable active compound formulation, 10 mg of active compound are mixed with 0.5 ml of dimethyl sulphoxide. A portion of the concentrate is diluted with citrated cattle blood, and the desired concentration is prepared.
About 20 unfed adult fleas (Ctenocephalides felis) are placed into a chamber which is closed at the top and bottom with gauze. A metal cylinder whose bottom end is closed with parafilm is placed onto the chamber. The cylinder contains the blood/active compound preparation, which can be imbibed by the fleas through the parafilm membrane.
After 2 days, the kill in % is determined 100% means that all fleas have been killed; 0% means that none of the fleas have been killed.

[8] = tested on: Lucilia cuprina larvae; assay: Lucilia cuprina test (LUCICU); format: in vivo; conditions: 100 ppm, after 2 days
Protocol: as §3, with “Lucilia cuprina” for “Musca domestica”, “(LUCICU)” for “(MUSCDO)”, “horse meat” for “a sponge”, “about 20 Lucilia cuprina larvae.” for “adult Musca domestica.”, “the larvae” for “flies”, “none of the larvae” for “no flies”

| Compound | efficacy [1] [%] | efficacy ([2]; 100 g/ha) [%] | efficacy ([3]; 100 g/ha) [%] | log p [4] | other results |
| --- | --- | --- | --- | --- | --- |
| CCn1c(C(=O)NC(c2ccc(F)c(C(F)(F)F)c2)C(F)(F)F)cc2cc(C(=O)NC3(C(N)=S)CC3)c(Cl)nc21 (centres unmarked) [Compound 66] | 100 | 100 | 100 | 3.64 | – |
| CCn1c(C(=O)NC(c2cc(Cl)cc(Cl)c2)C(F)(F)F)cc2cc(C(=O)NC3CC3)c(Cl)nc21 (centres unmarked) [Compound 28] | – | 100 | 100 | – | efficacy (laying of fertile eggs) [5]: 100%; efficacy (kill) [6]: 100%; efficacy (kill) [7]: 95%; efficacy (kill) [8]: 100% |
| CCn1c(C(=O)NC(c2cccc(C(F)(F)F)c2)C(F)(F)F)cc2cc(C(=O)NCC(F)(F)F)c(Cl)nc21 (centres unmarked) [Compound 41] | – | 100 | 100 | 4.08 | efficacy (laying of fertile eggs) [5]: 100%; efficacy (kill) [6]: 100%; efficacy (kill) [7]: 100%; efficacy (kill) [8]: 100% |
| C#CCn1c(C(=O)NC(c2cccc(C(F)(F)F)c2)C(F)(F)F)cc2cc(C(=O)NC3CC3)c(Cl)nc21 (centres unmarked) [Compound 23] | 90 | 100 | 100 | 3.45 | efficacy (laying of fertile eggs) [5]: 100%; efficacy (kill) [8]: 100% |
| CCn1c(C(=O)NC(c2ccc(F)c(Cl)c2)C(F)(F)F)cc2cc(C(=O)NC3CC3)c(C)nc21 (centres unmarked) [Compound 9] | – | – | 100 | 3.39 | efficacy ([2]; 20 g/ha): 100% |
| C#CCn1c(C(=O)NC(c2ccc(F)c(C(F)(F)F)c2)C(F)(F)F)cc2cc(C(=O)NC3CC3)c(Cl)nc21 (centres unmarked) [Compound 70] | – | 100 | 100 | 3.55 | – |
| CCn1c(C(=O)NC(c2cccc(C(F)(F)F)c2)C(F)(F)F)cc2cc(C(=O)NC3CC3)c(C(F)(F)F)nc21 (centres unmarked) [Compound 73] | – | 100 | 100 | 4.00 | – |
| CCn1c(C(=O)NC(c2cccc(C(F)(F)F)c2)C(F)(F)F)cc2cc(C(=O)NC3COC3)c(Cl)nc21 (centres unmarked) [Compound 39] | 90 | 100 | – | 3.28 | – |
| CCn1c(C(=O)NC(c2cccc(C(F)(F)F)c2)C(F)(F)F)cc2cc(C(=O)NCc3ccccn3)c(C)nc21 (centres unmarked) [Compound 7] | 90 | – | – | 2.99 | – |
| C#CCn1c(C(=O)NC(c2cccc(C(F)(F)F)c2)C(F)(F)F)cc2cc(C(=O)NC3CCC3)c(Cl)nc21 (centres unmarked) [Compound 25] | 90 | 100 | – | 3.79 | – |
| CCn1c(C(=O)NC(c2cccc(C(F)(F)F)c2)C(F)(F)F)cc2cc(C(=O)NC3CCC3)c(C)nc21 (centres unmarked) [Compound 5] | 90 | 100 | – | 3.89 | – |
| CCn1c(C(=O)NC(c2cc(Cl)c(F)c(Cl)c2)C(F)(F)F)cc2cc(C(=O)NCc3ccccn3)c(Cl)nc21 (centres unmarked) [Compound 60] | 90 | 100 | – | 3.67 | efficacy (laying of fertile eggs) [5]: 100%; efficacy (kill) [7]: 95%; efficacy (kill) [8]: 100% |
| CCn1c(C(=O)NC(c2cc(Cl)c(F)c(Cl)c2F)C(F)(F)F)cc2cc(C(=O)NC3(C#N)CC3)c(Cl)nc21 (centres unmarked) [Compound 31] | – | 100 | 100 | 4.32 | – |
| CCn1c(C(=O)NC(c2cccc(C(F)(F)F)c2)C(F)(F)F)cc2cc(C(=O)NC3(C#N)CC3)c(C(F)(F)F)nc21 (centres unmarked) [Compound 74] | – | 100 | 100 | 3.93 | efficacy ([2]; 500 g/ha): 100%; efficacy ([3]; 500 g/ha): 100% |
| CCn1c(C(=O)NC(c2ccc(F)c(Cl)c2)C(F)(F)F)cc2cc(C(=O)NCc3ccccn3)c(Cl)nc21 (centres unmarked) [Compound 58] | 100 | 100 | – | 3.17 | efficacy (laying of fertile eggs) [5]: 100%; efficacy (kill) [7]: 100%; efficacy (kill) [8]: 100% |
| CCn1c(C(=O)NC(c2cccc(C(F)(F)F)c2)C(F)(F)F)cc2cc(C(=O)NCC#N)c(Cl)cc21 (centres unmarked) [reference compound] | – | – | – | – | Emax at 100 g/ha ([1]; Tetranychus urticae, 144 h, TETRUR, 100 g of ai/ha, 6 d, read-out: % Efficacy dat): 0% |
| CCn1c(C(=O)NC(c2cc(Cl)c(F)c(Cl)c2F)C(F)(F)F)cc2cc(C(=O)NC3CC3)c(C)nc21 (centres unmarked) [Compound 71] | – | 100 | 100 | 4.21 | – |
| C#CCn1c(C(=O)NC(c2cc(Cl)c(F)c(Cl)c2)C(F)(F)F)cc2cc(C(=O)NC3CC3)c(Cl)nc21 (centres unmarked) [Compound 68] | – | 100 | 100 | 3.85 | – |
| C#CCn1c(C(=O)NC(c2cc(Cl)c(F)c(Cl)c2F)C(F)(F)F)cc2cc(C(=O)NC3CC3)c(Cl)nc21 (centres unmarked) [Compound 69] | – | 100 | 100 | 4.01 | – |
| CCn1c(C(=O)NC(c2cc(Cl)c(F)c(Cl)c2)C(F)(F)F)cc2cc(C(=O)NC3CC3)c(C)nc21 (centres unmarked) [Compound 72] | – | 100 | 100 | 4.00 | – |
| CCn1c(C(=O)NC(c2ccc(F)c(C(F)(F)F)c2)C(F)(F)F)cc2cc(C(=O)NC3CC3)c(C)nc21 (centres unmarked) [Compound 76] | 100 | 100 | 100 | 3.67 | – |
| C#CCn1c(C(=O)NC(c2cccc(C(F)(F)F)c2)C(F)(F)F)cc2cc(C(=O)NC(C)C)c(Cl)nc21 (centres unmarked) [Compound 24] | – | 100 | – | 3.68 | efficacy ([2]; 500 g/ha): 100% |
| Cn1c(C(=O)NC(c2cccc(C(F)(F)F)c2)C(F)(F)F)cc2cc(C(=O)NC3CC3)c(Cl)cc21 (centres unmarked) [reference compound] | – | – | – | – | Emax at 4 g/ha ([1]; Tetranychus urticae, 144 h, TETRUR, 4 g of ai/ha, 6 d, read-out: % Efficacy dat): 0%; percent efficacy (larval mortality) at 0.8 g/ha ([2]; Phaedon cochleariae, 168 h, PHAECO, 0.8 g of ai/ha, 7 d, read-out: % Efficacy dat): 0%; Emax at 4 g/ha ([3]; Spodoptera frugiperda, 168 h, SPODFR, 4 g of ai/ha, 7 d, read-out: % Efficacy dat): 17% |
| CCn1c(C(=O)NC(c2ccc(F)c(Cl)c2)C(F)(F)F)cc2cc(C(=O)NC(C)C)c(Cl)nc21 (centres unmarked) [Compound 17] | 100 | – | – | 3.88 | – |
| CCC(=O)NCc1cc2cc(C(=O)NC(c3cccc(C(F)(F)F)c3)C(F)(F)F)n(CC)c2nc1C (centres unmarked) [Compound 93] | – | 100 | – | 3.45 | – |
| CCNC(=O)c1cc2cc(C(=O)NC(c3cccc(C(F)(F)F)c3)C(F)(F)F)n(CC)c2nc1Cl (centres unmarked) [Compound 52] | – | 100 | – | 3.70 | – |
